The text below walks through data of patent US20100093861A1, “TREATMENT OF INSULIN RESISTANCE OR DISEASES ASSOCIATED WITH INSULIN RESISTANCE” (Stevia ApS, priority 2006, published 2010).

For one assay, the system named is PDX-1. As to the kind of experiment: Gene expression in islets from diabetic KKAy-mice, real time RT-PCR (Example 2): PDX-1. Conditions: islets of KKAy-mice after nine weeks treatment, normalized to 18S rRNA. Format: in vivo. As to the method: (§1) A the end of the nine week period of the in vivo study in example 1 RNA was purified from Islets, muscle, liver and fat from the three experimental groups, using standard techniques as described in Kiergen, RNA easy.
(§2) Gene expression of PDX-1, IRS1, Beta2, 11beta-HSD-1, Akt1, C/EBP-alpha, CPT1, GLUT2, IGF1, IR and Ins1 was measured with Real time RT-PCR using Taq Man Assays normalized to 18S rRNA, using the standard protocol (ABI, USA). All reagents were obtained from (ABI, USA). All probes are standard probes obtainable from ABI, USA, under the specific probe code number, given in respect of each gene.

The test system of another assay is 11beta-HSD1. The experiment in a line: Gene expression in islets from diabetic KKAy-mice, real time RT-PCR (Example 2): 11beta-HSD1. The class given is in vivo. As to conditions: islets of KKAy-mice after nine weeks treatment, normalized to 18S rRNA. On the procedure: as §1, §2
For orientation: Quantitative PCR measures a nucleic acid by following its amplification.

Another assay concerns diabetic KKAy-mice. The experiment in a line: In vivo study of plasma concentrations of insulin, glucose and triglycerides in KKAy-mice after isosteviol or soybean protein (Example 1). As to conditions: oral in diet. On the procedure:
The following experiment was performed to investigate the effect of isosteviol (ISV) and soybean protein on plasma concentrations of insulin, glucose and triglycerides. Four experimental groups, each consisting of 10 KKAy-mice (obtained from Clea Japan, Tokyo, Japan) and one control group of 20 C57 mice (obtained from Taconic, Ry, Denmark), all 5 weeks old, were feed the following three test diets in a period of nine weeks. • A: standard chow diet (SCD)(ALTROMIN 1320, Brogaarden, Hørsholm). Diet A was fed to one experimental group and to the control group. • B: standard chow diet (SCD) (ALTROMIN 1320, Brogaarden, Hørsholm)+0.02 g/kg BW of ISV (Waco Chemicals, Osaka, Japan). • C: diet containing 50 weight-% standard chow+50 weight-% Soybean Protein (SBP) (NutriPharma, Oslo)
Hormones and lipids were measured from blood sample at start and end of the treatment period. Fasting blood glucose as well as body weight were measured once a week. […] The blood was taken from the tail of the animals.
Isosteviol (ISV) and Soybean Protein (SBP) were given orally. The SBP were incorporated in the food pellet and the ISV was dissolved in absolute ethanol, the solution was inoculated on the pellets and the ethanol was allowed to evaporate, leaving the ISV on the food pellet. All diets were adjusted for vitamins and minerals, so that all diets content the same amount. Beside that, water was given ad libitum and a light cycle of 12 hours/12 hours was used. The experiment was performed in accordance with the guidelines of the Danish Council on Animal Care.

Another assay has as its system Akt1. The experiment in a line: Affymetrix gene chip analysis of KKAy islets: Akt1. The class given is in vivo, mice. Conditions: ISV vs. KKAy control islets, 9 weeks. As to the method:
cRNA preparation and in vitro transcription: In total 6 Affymetrix arrays MOE430 2.0 probe array cartridge were used i.e. for analysis of 3 replicas for the KKAy control group and the ISV group, respectively. Each of the 6 samples consisted of pooled RNA from 3-4 KKAy mice. Preparation of target for hybridization was prepared from 340 ng of total RNA using MessageAmp™ II aRNA Amplification Kits (Ambion), according to the manufacturers instructions. Arrays were hybridised and scanned as described elsewhere (Kruhoffer et al., 2005).

A further assay relates to GLUT2. The experiment in a line: Relative real time RT-PCR in islets of KKAy mice (Example 3): GLUT2. The class given is in vivo. Conditions: 9 weeks. On the procedure:
(§3) Islets were isolated by the collagenase digestion technique. In brief, the animals were anesthetized with pentobarbital (50 mg/kg intraperitoneally) and midline laparotomy was performed. The pancreas was retrogradely filled with 3 mL ice-cold Hanks balanced salt solution (([HBSS] Sigma Chemical, St Louis, Mo.) supplemented with 0.3 mg/ml collagenase Boehringer Mannheim GmbH, Germany). The pancreas was subsequently removed and incubated for 19 minutes at 37° C. After rinsing in HBSS, the islets were handpicked under a stereomicroscope and immediately transferred to a tubes containing 1 ml Trizol (Gibco/Invitrogene, Calsbad, Calif., USA). The islets isolated from the NMRI mice were incubated overnight at 37° C. and 95% normal atmosphere/5% CO2 in 10 ml RPMI 1640 containing 11.1 mmol/L glucose supplemented with penicillin G and 100 μg/mL streptomycin (all Gibco/Invitrogene, Calsbad, Calif., USA).
(§4) For each group, islets from 3-4 mice (180-200 islets) were pooled in 1 ml Trizol reagent (Gibco/lnvitrogene, Calsbad, Calif., USA) before RNA purification. Total RNA was extracted according to the manufactures' instructions. RNA was quantified by measuring absorbance at 260 and 280 nm. The quality of the RNA was checked by the Agilent 2100 bioanalyzer (Agilent, Santa Clara, USA). […]

The subject of a further assay is Ins1. The experiment in a line: Relative real time RT-PCR in islets of KKAy mice (Example 3): Ins1. Format: in vivo. Conditions: 9 weeks. On the procedure:
as §3, §4

Setting [1] is: after 9 weeks of treatment, compared to standard chow diet, ISV 0.02 g/kg BW, SBP 50 weight-% of diet.

As to `C[C@@]12CC[C@@H]3[C@@](CC[C@H]4[C@@]3(C)CCC[C@@]4(C)C(=O)O)(CC1=O)C2` (single isomer, unassigned; ent-16) [ISV, ent-16-ketobeyeran-19-oic acid], the “increased expression of PDX-1 compared to standard diet” value with PDX-1 amounted to 96%. Besides, the “decreased expression of 11beta-HSD1 compared to standard diet” value with 11beta-HSD1 turned out to be 61%. In the assay with diabetic KKAy-mice (setting [1]), the “reduction of plasma glucose concentration, SCD vs. treatment” value stood at 73% and the “reduction of plasma insulin concentration, SCD vs. treatment” value was determined as 192%. Also, the “plasma triglyceride concentration, SCD vs. treatment” value in the assay with diabetic KKAy-mice (nine weeks treatment) is reported as 101%. The “array: change of Akt1 expression” value with Akt1 is “no changes”. In addition, the “up regulation of the GLUT2 gene transcript” value with GLUT2 (RT-PCR) was “more than 3 fold”. In addition, in the assay on GLUT2 (normalized to 18S rRNA), the “increased expression of GLUT2, ISV group vs. control group” value was 201%. Further, the “increase in Ins1 expression” value with Ins1 (RT-PCR) was “more than 2 fold”. Further, in the assay with Ins1 (normalized to 18S rRNA), the “increased expression of Ins1, ISV group vs. control group” value is 132%.
